In ChEMBL document CHEMBL5696442, “Discovery of type II inhibitors of TGFβ-activated kinase 1 (TAK1) and mitogen-activated protein kinase kinase kinase kinase 2 (MAP4K2)” (J Med Chem, 2015):

Experiments:
[1] = molecular target: T1, Mitogen-activated protein kinase kinase kinase 6 (Homo sapiens) (UniProt O95382); test: Inhibition of MAP3K6 Lys1 labeling site harbouring IAIKEIPER in human A-375 cells at 0.05 uM by KiNativ Profiling analysis relative to control; type: cell-based
T1 sequence (whole entry): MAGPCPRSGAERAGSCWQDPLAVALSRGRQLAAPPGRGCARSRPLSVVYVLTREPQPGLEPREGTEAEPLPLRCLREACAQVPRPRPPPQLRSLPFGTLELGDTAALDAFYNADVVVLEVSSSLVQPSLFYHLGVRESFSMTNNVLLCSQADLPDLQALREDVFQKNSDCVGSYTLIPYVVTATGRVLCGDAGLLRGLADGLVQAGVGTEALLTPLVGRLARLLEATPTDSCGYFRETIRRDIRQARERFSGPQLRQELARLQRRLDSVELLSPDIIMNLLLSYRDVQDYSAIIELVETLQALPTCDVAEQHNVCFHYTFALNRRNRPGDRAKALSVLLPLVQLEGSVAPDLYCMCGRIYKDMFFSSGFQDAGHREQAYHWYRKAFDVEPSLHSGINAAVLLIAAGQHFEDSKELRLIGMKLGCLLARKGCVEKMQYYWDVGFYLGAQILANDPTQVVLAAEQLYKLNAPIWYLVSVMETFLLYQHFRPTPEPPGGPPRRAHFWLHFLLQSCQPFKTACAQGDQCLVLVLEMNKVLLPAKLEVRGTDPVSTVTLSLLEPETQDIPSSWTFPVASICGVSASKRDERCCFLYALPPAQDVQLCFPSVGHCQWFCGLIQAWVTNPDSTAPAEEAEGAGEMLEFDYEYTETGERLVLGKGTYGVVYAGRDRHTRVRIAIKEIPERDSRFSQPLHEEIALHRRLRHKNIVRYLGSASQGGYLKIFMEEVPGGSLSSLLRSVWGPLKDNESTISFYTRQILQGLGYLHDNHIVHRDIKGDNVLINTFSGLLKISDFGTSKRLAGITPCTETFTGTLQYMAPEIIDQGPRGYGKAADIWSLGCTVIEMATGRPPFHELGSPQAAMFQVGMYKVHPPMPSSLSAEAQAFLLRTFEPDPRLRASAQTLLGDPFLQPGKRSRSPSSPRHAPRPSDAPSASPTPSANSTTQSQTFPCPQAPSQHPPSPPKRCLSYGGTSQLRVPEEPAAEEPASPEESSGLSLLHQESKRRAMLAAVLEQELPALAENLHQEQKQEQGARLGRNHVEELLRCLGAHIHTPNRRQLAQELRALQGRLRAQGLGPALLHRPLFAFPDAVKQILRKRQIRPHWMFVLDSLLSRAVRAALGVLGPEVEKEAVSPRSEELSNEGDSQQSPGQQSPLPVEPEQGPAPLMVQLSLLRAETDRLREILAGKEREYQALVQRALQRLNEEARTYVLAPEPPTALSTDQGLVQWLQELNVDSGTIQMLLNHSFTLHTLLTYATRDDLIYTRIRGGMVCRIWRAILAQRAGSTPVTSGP

[2] = molecular target: Peripheral plasma membrane protein CASK (Homo sapiens) (UniProt O14936); test: Inhibition of CASK Lys1 labeling site in human A-375 cells at 0.05 uM by KiNativ Profiling analysis relative to control
[3] = system: Receptor-type tyrosine-protein kinase FLT3 (Homo sapiens), P36888 [N841I]; test: Inhibition of FLT3 N841I mutant (unknown origin) at 10 uM by Ambit Kinomescan binding assay relative to control
[4] = molecular target: Casein kinase I isoform delta (Homo sapiens) (UniProt P48730); test: Inhibition of CK1 delta K2 labeling site in human Huh-7 cells at 1 uM by KiNativ Profiling analysis relative to control; type: cell-based
[5] = molecular target: Serine/threonine-protein kinase 38 (Homo sapiens) (UniProt Q15208); test: Inhibition of NDR1 Lys1 labeling site in human A-375 cells at 0.5 uM by KiNativ Profiling analysis relative to control; type: cell-based
[6] = molecular target: Serine/threonine-protein kinase PAK 4 (Homo sapiens) (UniProt O96013); test: Inhibition of PAK4 (unknown origin) at 1 uM by Ambit Kinomescan binding assay relative to control; values are per cent of control
[7] = molecular target: T2, Serine/threonine-protein kinase greatwall (Homo sapiens) (UniProt Q96GX5); test: Inhibition of MASTL Lys2 labeling site in human Huh-7 cell lysate at 1 uM by KiNativ Profiling analysis relative to control; type: subcellular
T2 sequence (whole entry): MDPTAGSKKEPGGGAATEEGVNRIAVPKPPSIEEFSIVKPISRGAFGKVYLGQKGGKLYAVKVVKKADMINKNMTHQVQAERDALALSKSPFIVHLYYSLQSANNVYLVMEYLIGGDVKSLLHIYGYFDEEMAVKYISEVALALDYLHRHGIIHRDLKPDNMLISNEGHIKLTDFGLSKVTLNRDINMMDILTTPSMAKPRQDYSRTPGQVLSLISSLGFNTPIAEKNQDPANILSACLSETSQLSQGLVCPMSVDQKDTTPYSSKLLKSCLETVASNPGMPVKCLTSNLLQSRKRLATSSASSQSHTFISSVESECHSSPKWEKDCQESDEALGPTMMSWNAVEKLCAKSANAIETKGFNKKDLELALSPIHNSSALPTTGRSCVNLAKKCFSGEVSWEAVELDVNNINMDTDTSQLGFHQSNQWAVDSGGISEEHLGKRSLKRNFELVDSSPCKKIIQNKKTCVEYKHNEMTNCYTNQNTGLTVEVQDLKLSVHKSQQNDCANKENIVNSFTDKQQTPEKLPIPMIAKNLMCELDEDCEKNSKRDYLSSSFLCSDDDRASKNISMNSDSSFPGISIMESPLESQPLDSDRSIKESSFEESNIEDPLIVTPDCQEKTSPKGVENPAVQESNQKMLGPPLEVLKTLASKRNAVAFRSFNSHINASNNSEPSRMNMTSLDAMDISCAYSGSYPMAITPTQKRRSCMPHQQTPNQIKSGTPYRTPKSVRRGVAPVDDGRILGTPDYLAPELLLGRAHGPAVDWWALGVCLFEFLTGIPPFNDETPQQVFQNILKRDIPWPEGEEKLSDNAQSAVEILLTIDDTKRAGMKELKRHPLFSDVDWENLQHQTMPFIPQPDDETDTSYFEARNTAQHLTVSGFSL

Sequence of Casein kinase I isoform delta (Homo sapiens) (P48730 whole entry, looked up, canonical isoform): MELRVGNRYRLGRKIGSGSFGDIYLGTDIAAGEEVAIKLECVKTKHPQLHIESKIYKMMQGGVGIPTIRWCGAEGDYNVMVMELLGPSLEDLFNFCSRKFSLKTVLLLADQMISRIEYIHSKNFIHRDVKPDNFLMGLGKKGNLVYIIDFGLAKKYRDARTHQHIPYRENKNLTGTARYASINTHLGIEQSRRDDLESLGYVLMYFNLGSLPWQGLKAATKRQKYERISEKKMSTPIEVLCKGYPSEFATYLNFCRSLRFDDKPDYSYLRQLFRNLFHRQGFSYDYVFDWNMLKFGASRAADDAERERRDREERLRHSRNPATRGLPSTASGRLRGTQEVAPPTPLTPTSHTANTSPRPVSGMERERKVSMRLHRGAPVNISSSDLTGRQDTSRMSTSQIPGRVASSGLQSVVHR
Sequence of Peripheral plasma membrane protein CASK (Homo sapiens) (O14936 whole entry, looked up): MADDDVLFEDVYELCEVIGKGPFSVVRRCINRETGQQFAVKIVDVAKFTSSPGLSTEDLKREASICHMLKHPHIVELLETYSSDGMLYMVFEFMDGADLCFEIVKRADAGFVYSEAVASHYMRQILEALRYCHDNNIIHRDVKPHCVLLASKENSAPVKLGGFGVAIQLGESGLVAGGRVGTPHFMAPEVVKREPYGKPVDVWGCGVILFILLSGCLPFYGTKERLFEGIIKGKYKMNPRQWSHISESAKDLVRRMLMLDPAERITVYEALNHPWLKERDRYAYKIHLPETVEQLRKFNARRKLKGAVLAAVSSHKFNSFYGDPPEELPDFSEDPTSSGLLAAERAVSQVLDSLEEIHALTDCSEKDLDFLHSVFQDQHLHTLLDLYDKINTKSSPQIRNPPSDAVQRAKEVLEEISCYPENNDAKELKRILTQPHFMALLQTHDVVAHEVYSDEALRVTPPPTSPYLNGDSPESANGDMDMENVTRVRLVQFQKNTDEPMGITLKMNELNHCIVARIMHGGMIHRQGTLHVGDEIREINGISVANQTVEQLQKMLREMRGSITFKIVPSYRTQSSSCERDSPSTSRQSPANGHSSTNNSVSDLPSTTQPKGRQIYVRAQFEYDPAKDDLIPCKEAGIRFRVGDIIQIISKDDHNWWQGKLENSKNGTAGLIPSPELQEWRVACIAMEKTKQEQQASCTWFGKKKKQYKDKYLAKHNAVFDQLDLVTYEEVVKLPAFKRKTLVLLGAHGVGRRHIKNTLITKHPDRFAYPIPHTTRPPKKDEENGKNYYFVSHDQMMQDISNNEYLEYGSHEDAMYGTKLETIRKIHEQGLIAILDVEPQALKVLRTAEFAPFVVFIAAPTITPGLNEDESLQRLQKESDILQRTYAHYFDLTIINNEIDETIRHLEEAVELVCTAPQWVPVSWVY
Sequence of Serine/threonine-protein kinase PAK 4 (Homo sapiens) (O96013 whole entry, looked up): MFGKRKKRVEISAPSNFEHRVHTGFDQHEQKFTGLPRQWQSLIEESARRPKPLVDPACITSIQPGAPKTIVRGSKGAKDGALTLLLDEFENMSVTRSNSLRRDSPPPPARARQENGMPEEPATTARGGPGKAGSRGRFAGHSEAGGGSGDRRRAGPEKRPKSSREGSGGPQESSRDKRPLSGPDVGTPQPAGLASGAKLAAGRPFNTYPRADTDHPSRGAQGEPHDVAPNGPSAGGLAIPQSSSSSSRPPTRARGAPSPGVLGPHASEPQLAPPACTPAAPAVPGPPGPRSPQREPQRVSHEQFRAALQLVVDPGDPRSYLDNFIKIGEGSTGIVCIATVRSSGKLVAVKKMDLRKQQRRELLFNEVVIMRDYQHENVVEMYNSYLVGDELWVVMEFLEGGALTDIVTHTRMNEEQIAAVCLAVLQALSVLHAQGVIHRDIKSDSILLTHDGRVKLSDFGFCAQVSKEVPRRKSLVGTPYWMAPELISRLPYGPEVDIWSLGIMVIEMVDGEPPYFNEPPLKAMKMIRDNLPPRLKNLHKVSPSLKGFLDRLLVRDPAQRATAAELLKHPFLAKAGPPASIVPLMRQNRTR
Sequence of Serine/threonine-protein kinase 38 (Homo sapiens) (Q15208 2-465 limits assumed): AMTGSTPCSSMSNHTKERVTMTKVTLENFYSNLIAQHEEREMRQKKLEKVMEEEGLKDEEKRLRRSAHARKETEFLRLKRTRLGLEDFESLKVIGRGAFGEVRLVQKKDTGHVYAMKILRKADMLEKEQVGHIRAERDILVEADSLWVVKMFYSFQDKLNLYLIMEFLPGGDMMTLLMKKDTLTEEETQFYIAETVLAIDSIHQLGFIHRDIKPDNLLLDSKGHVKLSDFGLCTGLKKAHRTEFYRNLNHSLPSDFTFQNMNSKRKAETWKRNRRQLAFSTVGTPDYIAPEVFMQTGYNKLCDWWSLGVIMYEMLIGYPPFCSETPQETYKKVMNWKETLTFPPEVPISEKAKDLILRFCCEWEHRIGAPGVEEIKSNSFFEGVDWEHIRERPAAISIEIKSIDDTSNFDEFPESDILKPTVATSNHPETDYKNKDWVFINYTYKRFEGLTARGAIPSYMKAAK

## CCN1CCN(Cc2ccc(NC(=O)c3ccc(C)c(Oc4ccnc5[nH]ccc45)c3)cc2C(F)(F)F)CC1
[1]
  inhibition: 10.8%
[2]
  inhibition: 10.9%
[3]
  inhibition: 0%
[4]
  inhibition: 18.5%

## CCN1CCN(Cc2ccc(NC(=O)c3ccc(C)c(/C=C/c4cnc5[nH]ccc5c4OC)c3)cc2C(F)(F)F)CC1
[5]
  inhibition: -0.8%
[6]
  residual activity: 100%

## CNc1cc(Oc2cc(C(=O)Nc3cc(N4CCN(C)CC4)cc(C(F)(F)F)c3)ccc2C)ncn1
[7]
  inhibition: 26%
